“Also recorded” adds a separate entry of the source.
Tests used:
Assay in all cases: Automodification reaction, ADP-ribose Western blot / in-gel fluorescence after click to azido-rhodamine
Format in all cases: biochemical
Details in all cases: FIG. 5I
asPARP-1 (PARP-1 L877A) = target: T1, asPARP-1 (PARP-1 L877A) (Mus musculus, UniProt P11103, L876A)
T1 construct: relative to un-shifted full length PARP-1 measured by densitometry of anti-PARP-1 western blots; made in house; host or cells: Sf9 insect cells (baculovirus)
T1 sequence (P11103 whole entry L876A): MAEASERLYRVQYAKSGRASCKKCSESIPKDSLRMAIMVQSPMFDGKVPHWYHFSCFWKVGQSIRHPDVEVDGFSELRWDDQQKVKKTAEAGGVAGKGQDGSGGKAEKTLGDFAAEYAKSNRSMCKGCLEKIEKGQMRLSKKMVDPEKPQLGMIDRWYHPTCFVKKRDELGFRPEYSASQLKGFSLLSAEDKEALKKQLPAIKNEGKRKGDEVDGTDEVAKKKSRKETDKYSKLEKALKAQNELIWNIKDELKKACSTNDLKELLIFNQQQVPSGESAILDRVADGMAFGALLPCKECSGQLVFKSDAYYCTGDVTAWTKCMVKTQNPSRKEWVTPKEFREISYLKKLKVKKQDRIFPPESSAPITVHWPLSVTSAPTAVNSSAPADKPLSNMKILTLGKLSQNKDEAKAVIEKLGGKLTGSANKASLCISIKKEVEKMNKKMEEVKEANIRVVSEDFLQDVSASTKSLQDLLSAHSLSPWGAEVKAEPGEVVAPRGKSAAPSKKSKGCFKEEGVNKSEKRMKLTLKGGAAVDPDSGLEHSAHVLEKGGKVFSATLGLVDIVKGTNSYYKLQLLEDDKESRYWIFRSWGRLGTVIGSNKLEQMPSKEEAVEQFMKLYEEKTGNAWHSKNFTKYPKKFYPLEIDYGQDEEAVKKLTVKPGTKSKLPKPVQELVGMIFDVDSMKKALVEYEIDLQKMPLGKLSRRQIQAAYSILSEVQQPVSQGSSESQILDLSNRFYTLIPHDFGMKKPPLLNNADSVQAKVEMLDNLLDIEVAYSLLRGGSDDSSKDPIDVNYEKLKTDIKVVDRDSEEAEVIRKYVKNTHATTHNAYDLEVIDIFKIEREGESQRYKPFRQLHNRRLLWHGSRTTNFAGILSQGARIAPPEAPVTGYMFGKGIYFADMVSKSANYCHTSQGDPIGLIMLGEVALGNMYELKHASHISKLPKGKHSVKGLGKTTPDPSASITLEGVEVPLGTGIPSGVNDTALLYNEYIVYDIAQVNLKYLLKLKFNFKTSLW
Experimental: (§1) In vitro automodification reactions. 200 ng PARP Protein was incubated in Automodification Buffer (30 mM HEPES, pH 8.0, 5 mM MgCl2, 5 mM CaCl2, 0.01% NP-40, 1 mM DTT, 100 ng/mL sonicated salmon sperm DNA (Stratagene), 100 ng/mL BSA (SIGMA)) with NAD^+ or NAD^+ analogs as indicated at 25° C. for 5 (PARP-1 and PARP2) or 30 minutes (PARP3) for Sf9-purified proteins and for 45 minutes for bacterially purified enzymes.
(§2) Reactions were stopped by addition of ⅓ reaction volume with 4×SDS-PAGE Loading Buffer (200 mM Tris, pH 6.8, 8% SDS, 40% Glycerol, 4% β-mercaptoethanol, 50 mM EDTA, 0.08% Bromophenol Blue) followed by boiling at 100° C. for 5 minutes. Reaction products in 1×SDS-PAGE buffer were then resolved on a 10% SDS-PAGE gel, transferred to a nitrocellulose membrane and blotted with a polyclonal antibody against PARP-1 or with an antibody-like detection reagent against ADP-ribose (MABE1016, Millipore). Relative quantitation of PARP-1 automodifications was performed by the ratio of PARylation-induced […] in SDS-PAGE mobility relative to un-shifted full length PARP-1 measured by densitometry of anti-PARP-1 western blots.
(§3) Reactions were stopped by methanol:chloroform precipitation (Wessel and Flugge, 1984). The protein pellets were clicked to azido-Rhodamine (Click Chemistry Tools) in Denaturing CC Buffer (100 mM HEPES, pH 8, 4 M Urea, 0.5 M NaCl, 2% CHAPS, 10 μM azido-Rhodamine, 1 mM THPTA (Click Chemistry Tools), 5 mM CuSO4, 5 mM Sodium Ascorbate) with Azido-Rhodamine, THPTA:CuSO4 complex, and Sodium Ascorbate each added sequentially in written order. […]
(§4) The automodification reactions were stopped by the addition of one third of a reaction volume of 4×SDS-PAGE Loading Buffer (200 mM Tris.HCl, pH 6.8, 8% SDS, 40% glycerol, 4% 3-mercaptoethanol, 50 mM EDTA, 0.08% bromophenol blue) followed by heating to 100° C. for 5 min. […] Relative quantification of PARP-1 automodification was performed using densitometry and was expressed as the ratio of the PARylation-induced decrease in PARP-1 mobility relative to non-shifted PARP-1. […]

asPARP-3 (L394A) = target: T2, asPARP-3 (L394A) (Mus musculus, UniProt Q3ULW8, L399A)
T2 construct: made in house; host or cells: Sf9 insect cells (baculovirus)
T2 sequence (Q3ULW8 1-528 isoform Q3ULW8-2 L394A): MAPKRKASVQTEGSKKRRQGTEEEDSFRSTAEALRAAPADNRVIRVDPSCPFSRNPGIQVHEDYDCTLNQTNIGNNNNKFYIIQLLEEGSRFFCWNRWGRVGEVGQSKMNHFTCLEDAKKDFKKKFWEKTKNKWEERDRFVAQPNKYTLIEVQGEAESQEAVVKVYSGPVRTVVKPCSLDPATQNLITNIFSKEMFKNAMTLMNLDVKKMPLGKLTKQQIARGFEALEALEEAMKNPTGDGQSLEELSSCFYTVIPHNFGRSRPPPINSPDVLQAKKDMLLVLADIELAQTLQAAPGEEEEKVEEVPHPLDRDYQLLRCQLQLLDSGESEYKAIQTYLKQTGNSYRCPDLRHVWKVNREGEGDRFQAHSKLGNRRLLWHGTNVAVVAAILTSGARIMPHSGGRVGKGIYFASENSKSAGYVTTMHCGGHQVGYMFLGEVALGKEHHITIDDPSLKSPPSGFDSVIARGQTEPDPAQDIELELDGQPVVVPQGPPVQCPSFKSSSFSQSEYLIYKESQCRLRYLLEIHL
Experimental: as §1, §2, §3, §4

asPARP-2 (L443A) = target: T3, asPARP-2 (L443A) (Homo sapiens, UniProt Q9UGN5, L443A)
T3 construct: made in house; host or cells: Sf9 insect cells (baculovirus)
T3 sequence (Q9UGN5 whole entry L443A): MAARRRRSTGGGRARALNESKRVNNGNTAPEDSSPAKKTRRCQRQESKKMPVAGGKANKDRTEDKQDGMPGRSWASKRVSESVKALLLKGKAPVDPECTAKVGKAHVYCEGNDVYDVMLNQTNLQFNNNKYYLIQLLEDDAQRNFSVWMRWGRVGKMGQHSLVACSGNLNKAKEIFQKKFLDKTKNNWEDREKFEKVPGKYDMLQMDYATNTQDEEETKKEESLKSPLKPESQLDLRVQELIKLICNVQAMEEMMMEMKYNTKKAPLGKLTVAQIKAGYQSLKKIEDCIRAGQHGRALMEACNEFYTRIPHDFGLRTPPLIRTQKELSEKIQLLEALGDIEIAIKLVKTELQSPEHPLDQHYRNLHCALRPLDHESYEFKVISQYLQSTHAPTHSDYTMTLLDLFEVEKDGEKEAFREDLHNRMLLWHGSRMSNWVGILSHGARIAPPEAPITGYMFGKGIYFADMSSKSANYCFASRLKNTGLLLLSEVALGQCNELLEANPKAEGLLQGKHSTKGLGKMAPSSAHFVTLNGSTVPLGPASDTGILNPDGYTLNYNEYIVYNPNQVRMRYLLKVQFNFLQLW
Experimental: as §1, §2, §3, §4

SMILES: C#CCCSc1nc2c(N)ncnc2n1[C@@H]1O[C@H](COP(=O)(O)OP(=O)(O)OC[C@H]2O[C@@H]([n+]3cccc(C(N)=O)c3)C(O)C2O)[C@H](O)C1O (stereo partly drawn) [8-Bu(3-yne)T-NAD^+]
- catalytic activity of asPARP-1 with the NAD analog (asPARP-1 (PARP-1 L877A)): catalytically active
- catalytic activity of asPARP-3 with the NAD analog (asPARP-3 (L394A)): catalytically active; also recorded: supports activity
- catalytic activity of asPARP-2 with the NAD analog (asPARP-2 (L443A)): catalytically active; also recorded: supports activity
